Assays:
[1] = tested on: Rho-associated kinase (ROCK); settings: cited from earlier work
[2] = tested on: human ES cells; experiment: Seeding of individualized human ES cells in 96-well plates; type: cell-based; settings: similar to HA-100 but at 10-fold lower concentration

## Cc1cncc2cccc(S(=O)(=O)N3CCCNC[C@@H]3C)c12 [Clone H-1152, (S)-(+)-2-Methyl-1-[(4-methyl-5-isoquinolinyl)sulfonyl]homopiperazine]
[1]
  potency relative to HA-100: approximately ten-fold
[2]
  seeding of individualized human ES cells: very efficient seeding

— patent US10947499B2, “Selection of stem cell clones with defined differentiation capabilities” (Research Development Foundation, priority 2009, dated 2021)
